Converted amounts (≈) assume the structure as drawn. Where two headings read alike, the source gives them in different places.
Experiments:
S. epidermidis UC-20207 [1] = experiment: Determination of minimum inhibitory concentration (microdilution); type: cell-based; details: Staphylococcus epidermidis, UC20207, 18 h, read-out: MIC (minimum inhibitory concentration)
S. epidermidis RP62A [2] = experiment: as above; type: cell-based; details: Staphylococcus epidermidis, RP62A, 18 h, read-out: MIC (minimum inhibitory concentration)
S. epidermidis UC-20207 [3] = experiment: Time course adherence assay (prophylactic and delayed treatment); type: cell-based; details: for inhibition at 1 µg/mL / inhibition at 2 µg/mL / inhibition at 4 µg/mL / inhibition at 8 µg/mL: Staphylococcus epidermidis, read-out: Percent inhibition of bacterial adherence relative to controls; for Mean OD550: UC-20207
Description: (§1) Drug effects on bacterial adherence were measured 18 hours after treatment initiation using a quantitative spectrophotometric assay.
(§2) Relative inhibition of adherence was expressed by the following equation: (OD of control well−OD of treated well/OD of control well)×100, where OD is the mean optical density of six replicate wells from two separate experiments (three replicates per experiment). Control was defined as infected, drug-free cultures.
(§3) The primary efficacy variable in this study was the measurement of adherent bacteria to polystyrene surfaces after 18 hours to 24 hours of growth. To determine whether statistically significant differences existed between treatments (4×MIC, 2×MIC, MIC, and ½ MIC) compared with the infected-nontreated controls, multiple comparisons according to Dunnett's test (Montgomery, Design and Analysis of Experiments (1991)) were applied for each clinical strain. Differences were considered statistically significant when p<0.05.

S. epidermidis RP62A [4] = experiment: as above; type: cell-based; details: for inhibition at 1 µg/mL / inhibition at 2 µg/mL / inhibition at 4 µg/mL / inhibition at 8 µg/mL: Staphylococcus epidermidis, read-out: Percent inhibition of bacterial adherence relative to controls
Description: as §1, §2, §3

S. epidermidis UC-20208 = experiment: as above; type: cell-based; details: for inhibition at 1 µg/mL / inhibition at 2 µg/mL / inhibition at 4 µg/mL / inhibition at 8 µg/mL: Staphylococcus epidermidis, read-out: Percent inhibition of bacterial adherence relative to controls; for Mean OD550: UC-20208
Description: as §1, §2, §3

[5] = test system: S. epidermidis isolates (UC-20207, UC-20208, and RP62A); experiment: Time course adherence assay, summary over three S. epidermidis isolates; type: cell-based
Description: as §1, §2, §3

bacterial adherence = details: subinhibitory concentrations; other investigators; cited from earlier work
[6] = 1.0 μg/ml, treatment 0 h post-infection
[7] = 2.0 μg/ml (MIC), treatment 0 h post-infection
[8] = 2.0 μg/ml (MIC), treatment 2 h post-infection
[9] = 2.0 μg/ml (MIC), treatment 4 h post-infection
[10] = 4.0 μg/ml, treatment 0 h post-infection
[11] = 4.0 μg/ml, treatment 2 h post-infection
[12] = 4.0 μg/ml, treatment 4 h post-infection
[13] = 8.0 μg/ml, treatment 0 h post-infection
[14] = 8.0 μg/ml, treatment 2 h post-infection
[15] = 8.0 μg/ml, treatment 4 h post-infection
[16] = 8.0 μg/ml, treatment 6 h post-infection
[17] = 1.0 μg/ml, treatment 2 h post-infection
[18] = 1.0 μg/ml, treatment 4 h post-infection
[19] = 1.0 μg/ml, treatment 6 h post-infection
[20] = 2.0 μg/ml (MIC), treatment 6 h post-infection
[21] = 4.0 μg/ml, treatment 6 h post-infection

Structure (SMILES): CN[C@H](CC(C)C)C(=O)N[C@H]1C(=O)N[C@@H](CC(N)=O)C(=O)N[C@H]2C(=O)N[C@H]3C(=O)N[C@H](C(=O)N[C@H](C(=O)O)c4cc(O)cc(O)c4-c4cc3ccc4O)[C@H](O)c3ccc(c(Cl)c3)Oc3cc2cc(c3O[C@@H]2O[C@H](CO)[C@@H](O)[C@H](O)[C@H]2O[C@H]2C[C@](C)(N)[C@H](O)[C@H](C)O2)Oc2ccc(cc2Cl)[C@H]1O [Vancomycin]
- MIC (S. epidermidis UC-20207 [1]): 2 mg/L (≈ 1.38 µM)
- MIC (S. epidermidis RP62A [2]): 2 mg/L (≈ 1.38 µM)
- inhibition at 1 µg/mL (S. epidermidis UC-20207 [3]; UC20207, 0 h): 0%
- inhibition at 2 µg/mL (S. epidermidis UC-20207 [3]; UC20207, 0 h): 99.8%
- inhibition at 4 µg/mL (S. epidermidis UC-20207 [3]; UC20207, 0 h): 99.9%
- inhibition at 8 µg/mL (S. epidermidis UC-20207 [3]; UC20207, 0 h): 99.9%
- inhibition at 1 µg/mL (S. epidermidis UC-20207 [3]; UC20207, 2 h): 0%
- inhibition at 2 µg/mL (S. epidermidis UC-20207 [3]; UC20207, 2 h): 99.4%
- inhibition at 4 µg/mL (S. epidermidis UC-20207 [3]; UC20207, 2 h): 99.8%
- inhibition at 8 µg/mL (S. epidermidis UC-20207 [3]; UC20207, 2 h): 99.7%
- inhibition at 1 µg/mL (S. epidermidis UC-20207 [3]; UC20207, 4 h): 0%
- inhibition at 2 µg/mL (S. epidermidis UC-20207 [3]; UC20207, 4 h): 3.6%
- inhibition at 4 µg/mL (S. epidermidis UC-20207 [3]; UC20207, 4 h): 98.8%
- inhibition at 8 µg/mL (S. epidermidis UC-20207 [3]; UC20207, 4 h): 99%
- inhibition at 1 µg/mL (S. epidermidis UC-20207 [3]; UC20207, 6 h): 0%
- inhibition at 2 µg/mL (S. epidermidis UC-20207 [3]; UC20207, 6 h): 0%
- inhibition at 4 µg/mL (S. epidermidis UC-20207 [3]; UC20207, 6 h): 0%
- inhibition at 8 µg/mL (S. epidermidis UC-20207 [3]; UC20207, 6 h): 88.5%
- Mean OD550 (S. epidermidis UC-20207 [3]; [6]): 2.389 ± 0.175
- Mean OD550 (S. epidermidis UC-20207 [3]; [7]): 0.005 ± 0.004
- Mean OD550 (S. epidermidis UC-20207 [3]; [8]): 0.014 ± 0.010
- Mean OD550 (S. epidermidis UC-20207 [3]; [9]): 2.693 ± 0.527
- Mean OD550 (S. epidermidis UC-20207 [3]; [10]): 0.003 ± 0.002
- Mean OD550 (S. epidermidis UC-20207 [3]; [11]): 0.006 ± 0.003
- Mean OD550 (S. epidermidis UC-20207 [3]; [12]): 0.033 ± 0.010
- Mean OD550 (S. epidermidis UC-20207 [3]; [13]): 0.003 ± 0.002
- Mean OD550 (S. epidermidis UC-20207 [3]; [14]): 0.007 ± 0.003
- Mean OD550 (S. epidermidis UC-20207 [3]; [15]): 0.028 ± 0.014
- Mean OD550 (S. epidermidis UC-20207 [3]; [16]): 0.326 ± 0.046
- Mean OD550 (S. epidermidis RP62A [4]; [6]): 0.664 ± 0.632
- Mean OD550 (S. epidermidis RP62A [4]; [17]): 1.147 ± 0.527
- Mean OD550 (S. epidermidis RP62A [4]; [18]): 2.311 ± 0.318
- Mean OD550 (S. epidermidis RP62A [4]; [19]): 2.202 ± 0.238
- Mean OD550 (S. epidermidis RP62A [4]; [7]): 0.002 ± 0.002
- Mean OD550 (S. epidermidis RP62A [4]; [8]): 0.000 ± 0.001
- Mean OD550 (S. epidermidis RP62A [4]; [9]): 1.312 ± 0.936
- Mean OD550 (S. epidermidis RP62A [4]; [20]): 2.114 ± 0.439
- Mean OD550 (S. epidermidis RP62A [4]; [10]): 0.002 ± 0.002
- Mean OD550 (S. epidermidis RP62A [4]; [11]): 0.000 ± 0.002
- Mean OD550 (S. epidermidis RP62A [4]; [12]): 0.003 ± 0.004
- Mean OD550 (S. epidermidis RP62A [4]; [21]): 1.562 ± 0.573
- Mean OD550 (S. epidermidis RP62A [4]; [13]): 0.001 ± 0.001
- Mean OD550 (S. epidermidis RP62A [4]; [14]): 0.000 ± 0.001
- Mean OD550 (S. epidermidis RP62A [4]; [15]): 0.004 ± 0.004
- Mean OD550 (S. epidermidis RP62A [4]; [16]): 0.025 ± 0.030
- inhibition at 1 µg/mL (S. epidermidis RP62A [4]; 0 h): 69.3%
- inhibition at 2 µg/mL (S. epidermidis RP62A [4]; 0 h): 99.9%
- inhibition at 4 µg/mL (S. epidermidis RP62A [4]; 0 h): 99.9%
- inhibition at 8 µg/mL (S. epidermidis RP62A [4]; 0 h): 99.9%
- inhibition at 1 µg/mL (S. epidermidis RP62A [4]; 2 h): 41.4%
- inhibition at 2 µg/mL (S. epidermidis RP62A [4]; 2 h): 100%
- inhibition at 4 µg/mL (S. epidermidis RP62A [4]; 2 h): 100%
- inhibition at 8 µg/mL (S. epidermidis RP62A [4]; 2 h): 100%
- inhibition at 1 µg/mL (S. epidermidis RP62A [4]; 4 h): 0%
- inhibition at 2 µg/mL (S. epidermidis RP62A [4]; 4 h): 29.4%
- inhibition at 4 µg/mL (S. epidermidis RP62A [4]; 4 h): 99.8%
- inhibition at 8 µg/mL (S. epidermidis RP62A [4]; 4 h): 99.8%
- inhibition at 1 µg/mL (S. epidermidis RP62A [4]; 6 h): 0%
- inhibition at 2 µg/mL (S. epidermidis RP62A [4]; 6 h): 0%
- inhibition at 4 µg/mL (S. epidermidis RP62A [4]; 6 h): 19%
- inhibition at 8 µg/mL (S. epidermidis RP62A [4]; 6 h): 98.7%
- inhibition at 1 µg/mL (S. epidermidis UC-20208; UC20208, 0 h): 0%
- inhibition at 2 µg/mL (S. epidermidis UC-20208; UC20208, 0 h): 99.9%
- inhibition at 4 µg/mL (S. epidermidis UC-20208; UC20208, 0 h): 99.9%
- inhibition at 8 µg/mL (S. epidermidis UC-20208; UC20208, 0 h): 99.9%
- inhibition at 1 µg/mL (S. epidermidis UC-20208; UC20208, 2 h): 0%
- inhibition at 2 µg/mL (S. epidermidis UC-20208; UC20208, 2 h): 99.1%
- inhibition at 4 µg/mL (S. epidermidis UC-20208; UC20208, 2 h): 100%
- inhibition at 8 µg/mL (S. epidermidis UC-20208; UC20208, 2 h): 100%
- inhibition at 1 µg/mL (S. epidermidis UC-20208; UC20208, 4 h): 0%
- inhibition at 2 µg/mL (S. epidermidis UC-20208; UC20208, 4 h): 0%
- inhibition at 4 µg/mL (S. epidermidis UC-20208; UC20208, 4 h): 85.1%
- inhibition at 8 µg/mL (S. epidermidis UC-20208; UC20208, 4 h): 99.6%
- inhibition at 1 µg/mL (S. epidermidis UC-20208; UC20208, 6 h): 0%
- inhibition at 2 µg/mL (S. epidermidis UC-20208; UC20208, 6 h): 0%
- inhibition at 4 µg/mL (S. epidermidis UC-20208; UC20208, 6 h): 0%
- inhibition at 8 µg/mL (S. epidermidis UC-20208; UC20208, 6 h): 0%
- Mean OD550 (S. epidermidis UC-20208; [6]): 1.865 ± 0.309
- Mean OD550 (S. epidermidis UC-20208; [17]): 1.865 ± 0.435
- Mean OD550 (S. epidermidis UC-20208; [18]): 1.752 ± 0.566
- Mean OD550 (S. epidermidis UC-20208; [19]): 1.127 ± 0.463
- Mean OD550 (S. epidermidis UC-20208; [7]): 0.001 ± 0.000
- Mean OD550 (S. epidermidis UC-20208; [8]): 0.014 ± 0.036
- Mean OD550 (S. epidermidis UC-20208; [9]): 2.414 ± 0.558
- Mean OD550 (S. epidermidis UC-20208; [20]): 1.281 ± 0.555
- Mean OD550 (S. epidermidis UC-20208; [10]): 0.001 ± 0.001
- Mean OD550 (S. epidermidis UC-20208; [11]): 0.000 ± 0.001
- Mean OD550 (S. epidermidis UC-20208; [12]): 0.239 ± 0.261
- Mean OD550 (S. epidermidis UC-20208; [21]): 1.555 ± 0.206
- Mean OD550 (S. epidermidis UC-20208; [13]): 0.001 ± 0.001
- Mean OD550 (S. epidermidis UC-20208; [14]): 0.000 ± 0.001
- Mean OD550 (S. epidermidis UC-20208; [15]): 0.006 ± 0.002
- activity against cell adhesion ([5]; subtherapeutic concentrations (one-half MIC)): minimal or no activity against cell adhesion
- anti-adhesion activity ([5]; therapeutic levels, administered 2 hours post-infection, compared with linezolid): equally effective
- anti-adhesion activity ([5]; treatments delayed by 4 to 6 hours): only the highest concentrations (>MIC) demonstrated anti-adhesion activity
- activity against bacterial adherence (bacterial adherence): minimal or no activity against bacterial adherence

Source: US7322965B2, “Infection-resistant medical devices” (priority 2002, dated 2008)
